# Measured values from US20100130457A1, “Phenothiazine Derivatives for Treatment of Asthma” (Immune Control, Inc., priority 2008, published 2010).
# Entries after “also recorded” stand apart in the source; their conditions may differ. Read-outs that look alike come from different tables or passages of the source.
# Experiments:
# human small airway = test: Human precision-cut lung slices (PCLS), small airway contraction
# Method: Human precision-cut lung slices (PCLS) permit evaluation of pharmacological responses of novel drug candidates applied directly to their target tissue.
# Human precision-cut lung slices (PCLS, 250 μm thick) containing a small airway were contracted to carbachol, histamine and passively sensitization to induce airway closure±pre-incubation with ICI-735 (10 μM; 2 hours); FIG. 13. For example, human lung slices containing a small airway were incubated overnight with either negative control IgG (4 μg/mL) or positive control IgE (4 μg/mL). The slices were tested as follows: 1) IgG+anti-IgE; 2) IgE+anti-IgE; 3) IgE+Dexamethasone (1 μM)+anti-IgE; and 4) IgE+ICI-735 (10 μM) +anti-IgE. Dexamethasone and ICI-735 were pre-incubated 2 hours prior to anti-IgE; anti-IgE is used to crosslink antibodies and induce mast cell degranulation, which is believed to release histamine and cause airway contract. […]
# Human lung tissue contains multiple cell types, including mast cells, that localize in the region of airway smooth muscle, and that increase in number in individuals with asthma. Cross-linking of Fcε;R1 receptors on surfaces of mast cells leads to release of granules that contain smooth muscle contractile agonists, including histamine and leukotrienes.
# To test C-027 as a blocker of histamine-induced bronchoconstriction, lung slices were incubated for 2 hours with C-027, and small airway contraction was evaluated after addition of increasing concentrations of histamine.
# MPR1-MDCK = MPR1-MDCK permeability, potential to cross the blood-brain barrier; format: in vitro ADME; details: for % Recovery A-B / Papp A-B: A-B direction; for % Recovery B-A / Papp B-A: B-A direction; for Efflux: efflux ratio; for Brain Penetration Classification: from A-B Papp and efflux ratio
# From the text: (§1) A criterion for selecting an agent for proceeding to clinical trials is whether the compound crosses the blood-brain barrier. […] Fluphenazine (ICI-01175) is used as a control compound that has the potential to cross the blood-brain barrier. Table 1 summarizes the results of the test compounds for their potential to cross the blood-brain barrier.
# RPMI 8226 = test: Inhibition of proliferation of RPMI 8226 cells; format: cell-based, human; details: RPMI cells in vitro
# From the text: The next set of experiments was designed to assess compounds that have low levels of brain penetration for the ability of the test compounds to inhibit cellular proliferation. An exemplary in vitro assay is to screen for the ability of the test compounds to inhibit proliferation of the B-cell neoplastic cell line RPMI 8226 (a plasmacytoma derived from a multiple myeloma patient (Matsuoka, et al., 1967, Proc. Soc. Exp. Biol. Med. 125: 1246-1250). However other cell line can be used such as, U266 (established from an IgE-secreting myeloma patient (Nilsson, et al., 1970, Clin. Exp. Immunol., 7: 477-489) and ARH77 (an EBV transformed plasma cell leukemia (Burk, et al., 1978, Cancer Res. 38: 2508-2513).
# FIG. 1 is a graph depicting the effects on the test compounds on RPMI cell viability.
# [1] = MPR1-MDCK permeability, potential to cross the blood-brain barrier; format: in vitro ADME; details: dog, MDCK
# From the text: as §1
% Recovery A-B (MPR1-MDCK) [%],Papp A-B (MPR1-MDCK) [×10⁻⁶ cm/s],% Recovery B-A (MPR1-MDCK) [%],Papp B-A (MPR1-MDCK) [×10⁻⁶ cm/s],Efflux (MPR1-MDCK),Compound,Brain Penetration Classification (MPR1-MDCK),other results
–,–,–,–,–,"C[N+](C)(C)CCOC(N)=O [Carbachol, reference compound]",–,"bronchoconstriction (human small airway; 10^−8 to 10^−5 M, dose-dependent): up to 70%"
–,–,–,–,–,"C[C@@H]1C[C@H]2[C@@H]3CCC4=CC(=O)C=C[C@]4(C)[C@@]3(F)[C@@H](O)C[C@]2(C)[C@@]1(O)C(=O)CO [Dexamethasone, reference compound]",–,"airway contraction to IgE/anti-IgE (passive sensitization, mast cell degranulation) (human small airway; ICI-735 10 μM, dexamethasone 1 μM, pre-incubated 2 hours): no effect"
17,0.66,15,4.47,6.8,FC(F)(F)c1ccc2c(c1)N(CCCN1CCNCC1)c1ccccc1S2 [ICI-00685],Low (A-B Papp > 3.0 and Efflux Ratio > 10: Low),–
85,0.08,77,12.3,154,CN(C)S(=O)(=O)c1ccc2c(c1)N(CCCN1CCN(CCN)CC1)c1ccccc1S2 [ICI-00715],Low (A-B Papp > 3.0 and Efflux Ratio > 10: Low),ability to inhibit proliferation of RPMI cells (RPMI 8226): able to inhibit
15,1.06,40,3.33,3.1,CN(C)CCN1CCN(CCCN2c3ccccc3Sc3ccc(C(F)(F)F)cc32)CC1 [ICI-00738],Low (A-B Papp > 3.0 and Efflux Ratio > 10: Low),–
59,0.21,41,24.9,116,CNCC(=O)NCCN1CCN(CCCN2c3ccccc3Sc3ccc(C(F)(F)F)cc32)CC1 [ICI-00758],Low (A-B Papp > 3.0 and Efflux Ratio > 10: Low),–
46,<0.25,40,18.8,>75,NCCCN1CCN(CCCN2c3ccccc3Sc3ccc(C(F)(F)F)cc32)CC1 [ICI-00760],Low (A-B Papp > 3.0 and Efflux Ratio > 10: Low),–
–,–,–,–,–,NCC(N)C(=O)NCCN1CCN(CCCN2c3ccccc3Sc3ccc(C(F)(F)F)cc32)CC1 (stereo not drawn) [ICI-761],–,ability to inhibit proliferation of RPMI cells (RPMI 8226): able to inhibit
61,0.13,22,15.7,119,NCC(=O)NCCCN1CCN(CCCN2c3ccccc3Sc3ccc(C(F)(F)F)cc32)CC1 [ICI-00822],Low (A-B Papp > 3.0 and Efflux Ratio > 10: Low),–
57,<0.24,46,19.4,>80,CNCC(=O)NCCCN1CCN(CCCN2c3ccccc3Sc3ccc(C(F)(F)F)cc32)CC1 [ICI-00823],Low (A-B Papp > 3.0 and Efflux Ratio > 10: Low),–
11,1.77,21,13.8,7.8,FC(F)(F)c1ccc2c(c1)N(CCCC1CCNCC1)c1ccccc1S2 [ICI-00824],Low (A-B Papp > 3.0 and Efflux Ratio > 10: Low),–
3,<0.36,1,<0.49,–,NCCN1CCC(CCCN2c3ccccc3Sc3ccc(C(F)(F)F)cc32)CC1 [ICI-00846],Low (A-B Papp > 3.0 and Efflux Ratio > 10: Low),–
9,0.56,31,9.56,17,NCCCN1CCC(CCCN2c3ccccc3Sc3ccc(C(F)(F)F)cc32)CC1 [ICI-00847],Low (A-B Papp > 3.0 and Efflux Ratio > 10: Low),ability to inhibit proliferation of RPMI cells (RPMI 8226; listed as ICI-847): able to inhibit; also recorded: active
22,0.24,21,15.5,64,NCC(=O)NCCN1CCC(CCCN2c3ccccc3Sc3ccc(C(F)(F)F)cc32)CC1 [ICI-00848],Low (A-B Papp > 3.0 and Efflux Ratio > 10: Low),ability to inhibit proliferation of RPMI cells (RPMI 8226): able to inhibit
11,<1,26,5.1,>5.1,CNCC(=O)NCCN1CCC(CCCN2c3ccccc3Sc3ccc(C(F)(F)F)cc32)CC1 [ICI-00849],Low (A-B Papp > 3.0 and Efflux Ratio > 10: Low),ability to inhibit proliferation of RPMI cells (RPMI 8226): able to inhibit
11,0.94,9,4.94,5.3,CC(=O)NCCN1CCC(CCCN2c3ccccc3Sc3ccc(C(F)(F)F)cc32)CC1 [ICI-00850],Low (A-B Papp > 3.0 and Efflux Ratio > 10: Low),–
15,0.75,29,8.6,11,FC(F)(F)c1ccc2c(c1)N(CCCCN1CCNCC1)c1ccccc1S2 [ICI-00890],Low (A-B Papp > 3.0 and Efflux Ratio > 10: Low),–
56,0.22,56,30,136,N#Cc1ccc2c(c1)N(CCCN1CCN(CCN)CC1)c1ccccc1S2 [ICI-00894],Low (A-B Papp > 3.0 and Efflux Ratio > 10: Low),–
–,–,–,–,–,"OCCN1CCN(CCCN2c3ccccc3Sc3ccc(C(F)(F)F)cc32)CC1 [ICI-01175, Fluphenazine, reference compound]",High (A-B Papp > 3.0 and Efflux Ratio < 3.0: High),"Papp A→B ([1]; A-B direction): 8.7 ×10⁻⁶ cm/s; recovery ([1]; A-B direction, read-out: % Recovery A-B): 24%; Papp B→A ([1]; B-A direction): 9.63 ×10⁻⁶ cm/s; recovery ([1]; B-A direction, read-out: % Recovery B-A): 43%; efflux ratio ([1]; efflux ratio): 1.1"
29,<0.29,39,12.5,>43,CNCC(=O)NCCCN1CCC(CCCN2c3ccccc3Sc3ccc(C(F)(F)F)cc32)CC1 [ICI-01259],Low (A-B Papp > 3.0 and Efflux Ratio > 10: Low),ability to inhibit proliferation of RPMI cells (RPMI 8226): able to inhibit
55,0.32,47,26.4,82,NCC(=O)NCCCN1CCC(CCCN2c3ccccc3Sc3ccc(C(F)(F)F)cc32)CC1 [ICI-01260],Low (A-B Papp > 3.0 and Efflux Ratio > 10: Low),ability to inhibit proliferation of RPMI cells (RPMI 8226; listed as ICI-1260): able to inhibit; also recorded: active
3,<0.36,26,0.64,>1.8,CN(C)CCCN1CCC(CCCN2c3ccccc3Sc3ccc(C(F)(F)F)cc32)CC1 [ICI-01505],Low (A-B Papp > 3.0 and Efflux Ratio > 10: Low),–
–,–,–,–,–,"CC(C)NCC(O)c1ccc(O)c(O)c1 (stereo not drawn) [isoproterenol, reference compound]",–,"relaxation of maximally contracted airway smooth muscle (human small airway; in the presence of 30 μM CCh, isoproterenol 10 μM): comparable degree of relaxation"
